58 compounds from patent US20220298141A1, “ENZYME INHIBITORS” (KALVISTA PHARMACEUTICALS LIMITED, priority 2019, published 2022) can be followed below.

For the assay, the target named is T1, Human Factor XIIa (Homo sapiens, UniProt P00748).
T1 construct: purchased Enzyme Research Laboratories
T1 sequence (P00748 373-615 limits assumed): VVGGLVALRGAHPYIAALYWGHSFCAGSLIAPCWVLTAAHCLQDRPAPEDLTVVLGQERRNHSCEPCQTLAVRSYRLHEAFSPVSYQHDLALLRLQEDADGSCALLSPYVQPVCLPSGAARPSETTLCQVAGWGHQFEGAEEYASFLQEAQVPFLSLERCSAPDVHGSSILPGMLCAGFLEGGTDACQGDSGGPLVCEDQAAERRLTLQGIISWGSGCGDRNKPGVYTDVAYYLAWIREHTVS
T1 sequence (P00748 20-372 partner limits assumed): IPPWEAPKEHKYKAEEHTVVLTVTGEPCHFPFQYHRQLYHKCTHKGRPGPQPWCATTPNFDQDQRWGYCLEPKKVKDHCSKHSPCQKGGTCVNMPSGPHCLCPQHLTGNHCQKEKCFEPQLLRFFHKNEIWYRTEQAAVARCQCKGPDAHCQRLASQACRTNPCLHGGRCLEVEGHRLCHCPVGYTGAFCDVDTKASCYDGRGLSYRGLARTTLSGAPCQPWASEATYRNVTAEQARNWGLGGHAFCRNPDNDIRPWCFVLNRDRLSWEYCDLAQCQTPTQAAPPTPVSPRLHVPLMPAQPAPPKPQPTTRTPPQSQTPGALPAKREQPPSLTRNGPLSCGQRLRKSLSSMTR
Nature of the assay: Determination of Factor XIIa inhibitory activity in vitro (fluorogenic substrate H-DPro-Phe-Arg-AFC). In kind it is biochemical. Conditions: Human Factor XIIa (Enzyme Research Laboratories), 25° C., read-out: Human FXIIa IC50. As to the method:
Determination of the % Inhibition for FXIIa
Factor XIIa inhibitory activity in vitro was determined using standard published methods (see e.g. Shori et al., Biochem. Pharmacol., 1992, 43, 1209; Baeriswyl et al., ACS Chem. Biol., 2015, 10 (8) 1861; Bouckaert et al., European Journal of Medicinal Chemistry 110 (2016) 181). Human Factor XIIa (Enzyme Research Laboratories) was incubated at 25° C. with the fluorogenic substrate H-DPro-Phe-Arg-AFC and various concentrations of the test compound. Residual enzyme activity (initial rate of reaction) was determined by measuring the […] and the IC50 value for the test compound was determined.
The term IC50 denotes the concentration that inhibits the measured activity by half. Turning to `Nc1nccc2cc(CNC(=O)c3cnc4[nH]ccc4c3)ccc12` [Example 19.03, 1H-Pyrrolo[2,3-b]pyridine-5-carboxylic acid (1-amino-isoquinolin-6-ylmethyl)-amide], the IC50 fell in the range of 10 to 40 µM.
With `CN(CC1CCN(c2ccncc2)CC1)c1ncc(Cl)cc1C(=O)NCc1ccc2c(N)nccc2c1` [Example 28.02, N-((1-aminoisoquinolin-6-yl)methyl)-5-chloro-2-(methyl((1-(pyridin-4-yl)piperidin-4-yl)methyl)amino)nicotinamide] the figure was 10 to 40 µM; with `CCN(CC)CCCOc1ncc(Cl)cc1C(=O)NCc1ccc2c(N)nccc2c1` [Example 22.10], 10 to 40 µM; with `CN1CCC(N(C)c2ncc(Cl)cc2C(=O)NCc2ccc3c(N)nccc3c2)CC1` [Example 1.35], 10 to 40 µM.
With `CN1CCN(c2ccccc2CNc2ncc(C(=O)NCc3ccc4c(N)nccc4c3)cc2Cl)CC1` [Example 11.08] the figure was 10 to 40 µM.
With `CN1CCN(CCNc2ncc(C(=O)NCc3ccc4c(N)nccc4c3)cc2Cl)CC1` [Example 11.15], the IC50 fell in the range of 10 to 40 µM.
As to `Nc1nccc2cc(CNC(=O)c3cnc(OCc4ccncc4)c(Cl)c3)ccc12` [Example 13.21], the IC50 was in the range of 10 to 40 µM.
The value for `Nc1nccc2cc(CNC(=O)c3cnc(NCc4cccnc4)c(Cl)c3)ccc12` [Example 11.19] was 10 to 40 µM.
The value for `CN(C)CCOc1ncc(C(=O)NCc2ccc3c(N)nccc3c2)cc1Cl` [Example 13.19] was 10 to 40 µM; that for `CS(=O)(=O)c1cccc(CNc2ncc(Cl)cc2C(=O)NCc2ccc3c(N)nccc3c2)c1` [Example 1.06] was 3 to 10 µM.
The value for `Cn1cnc2cc(Oc3ncc(C(=O)NCc4ccc5c(N)nccc5c4)cc3Cl)ccc21` [Example 13.13] was 3 to 10 µM; that for `CC(C)CCNc1ncc(Cl)cc1C(=O)NCc1ccc2c(N)nccc2c1` [Example 1.18] was 10 to 40 µM.
As to `CN1CCC(COc2ncc(C(=O)NCc3ccc4c(N)nccc4c3)cc2Cl)CC1` [Example 13.17], the IC50 lay in the range of 10 to 40 µM.
The value for `C[C@@H]1CCC[C@H](C)N1CC(=O)Nc1cc(Cl)cc(C(=O)NCc2ccc3c(N)nccc3c2)c1` [Example 32.05] was 3 to 10 µM.
The value for `CC(C)NC(=O)N(C)c1ccc(Oc2ncc(C(=O)NCc3ccc4c(N)nccc4c3)cc2Cl)cc1` [Example 13.16] was 3 to 10 µM; that for `Nc1nccc2cc(CNC(=O)c3cccc(CN4CCN(CC5CCCC5)CC4)c3)ccc12` [Example 29.09] was 3 to 10 µM.
The value for `COc1ccccc1-c1cncc(C(=O)NCc2ccc3c(N)nccc3c2)c1` [Example 19.01, N-((1-aminoisoquinolin-6-yl)methyl)-5-(2-methoxyphenyl)nicotinamide] was 10 to 40 µM; that for `Nc1nccc2cc(CNC(=O)c3cc(Cl)cnc3NCC3CCOCC3)ccc12` [Example 1.03] was 10 to 40 µM; that for `CN1CCN(c2ccccc2CNc2ncc(Cl)cc2C(=O)NCc2ccc3c(N)nccc3c2)CC1` [Example 1.30] was 3 to 10 µM.
In the case of `Nc1nccc2cc(CNC(=O)c3cnc(Oc4ccccc4Cl)c(Cl)c3)ccc12` [Example 13.06], the IC50 lay within 10 to 40 µM.
The value for `Nc1nccc2cc(CNC(=O)c3cc(Cl)cnc3NCc3ccncc3)ccc12` [Example 1.23] was 3 to 10 µM; that for `Nc1nccc2cc(CNC(=O)c3cc(Cl)cnc3Oc3cccc(N4CCNCC4)c3)ccc12` [Example 22.13] was 10 to 40 µM; that for `Nc1nccc2cc(CNC(=O)c3cnc(Oc4cccc(N5CCOCC5)c4)c(Cl)c3)ccc12` [Example 13.03] was 10 to 40 µM.
Regarding `Nc1nccc2cc(CNC(=O)c3cc(Cl)cnc3NC3CCCC3)ccc12` [Example 1.01], the IC50 lay in the range of 10 to 40 µM.
With `Nc1nccc2cc(CNC(=O)c3cc(Cl)cnc3NCCOc3ccccc3)ccc12` [Example 1.14] the figure was 3 to 10 µM; with `CN1CCC(CNc2cccc(C(=O)NCc3ccc4c(N)nccc4c3)n2)CC1` [Example 4.26], 1 to 3 µM; with `COc1ccc(-n2cc(C(F)F)nn2)c(CNC(=O)c2nccnc2NCC2CCN(C)CC2)c1F` [Example 33.22], 10 to 40 µM.
With `COc1ccc(Nc2ncc(C(=O)NCc3ccc4c(N)nccc4c3)cc2Cl)cc1` [Example 11.25] the figure was 10 to 40 µM; with `Nc1nccc2cc(CNC(=O)c3cc(Cl)cnc3NCc3ccc4c(c3)OCO4)ccc12` [Example 1.21], 10 to 40 µM.
`Nc1nccc2cc(CNC(=O)c3cc(Cl)cnc3NCCN3CCCCC3)ccc12` [Example 1.10]: the IC50 lay within 1 to 3 µM.
With `Nc1nccc2cc(CNC(=O)c3cc(Cl)cnc3N3CC(O)C3)ccc12` [Example 16.02] the figure was 10 to 40 µM; with `CN(C)c1ccc(Nc2ncc(Cl)cc2C(=O)NCc2ccc3c(N)nccc3c2)cc1` [Example 1.39], 10 to 40 µM; with `Nc1nccc2cc(CNC(=O)c3cnc(Nc4ccccc4)c(Cl)c3)ccc12` [Example 11.04], 10 to 40 µM.
With `Nc1nccc2cc(CNC(=O)c3cnc(Nc4ccc(N5CCOCC5)cc4)c(Cl)c3)ccc12` [Example 11.27] the figure was 10 to 40 µM; with `CN(C)CCCNc1ncc(C(=O)NCc2ccc3c(N)nccc3c2)cc1Cl` [Example 11.21], 3 to 10 µM.
As to `CN(C)c1ccccc1Nc1ncc(Cl)cc1C(=O)NCc1ccc2c(N)nccc2c1` [Example 1.41], the IC50 was 10 to 40 µM.
For the compound `CN(C)c1ccc(Oc2ncc(Cl)cc2C(=O)NCc2ccc3c(N)nccc3c2)cc1` [Example 22.03], the IC50 lay within 10 to 40 µM.
The value for `Nc1nccc2cc(CNC(=O)c3cc(Cl)cc(CN4CCN(CC5CCCC5)CC4)c3)ccc12` [Example 29.11, N-((1-aminoisoquinolin-6-yl)methyl)-3-chloro-5-((4-(cyclopentylmethyl)piperazin-1-yl)methyl)benzamide] was 3 to 10 µM.
In the case of `CN(C)CCCOc1ncc(C(=O)NCc2ccc3c(N)nccc3c2)cc1Cl` [Example 13.23], the IC50 was 10 to 40 µM.
With `CC(=O)NCCNc1ncc(Cl)cc1C(=O)NCc1ccc2c(N)nccc2c1` [Example 1.19] the figure was 3 to 10 µM; with `Nc1nccc2cc(CNC(=O)c3cnc(OCCN4CCCC4)c(Cl)c3)ccc12` [Example 13.18], 10 to 40 µM.
On to `COc1ccccc1Nc1ncc(Cl)cc1C(=O)NCc1ccc2c(N)nccc2c1` [Example 1.38], for which the IC50 was in the range of 10 to 40 µM.
With `Cn1cnc2cc(Oc3ncc(Cl)cc3C(=O)NCc3ccc4c(N)nccc4c3)ccc21` [Example 22.02] the figure was 10 to 40 µM.
With `CN(C)CCCNc1ncc(Cl)cc1C(=O)NCc1ccc2c(N)nccc2c1` [Example 11.05], the IC50 was in the range of 1 to 3 µM.
The value for `COCCNc1ncc(Cl)cc1C(=O)NCc1ccc2c(N)nccc2c1` [Example 1.08] was 3 to 10 µM.
`Nc1nccc2cc(CNC(=O)c3cnc(Oc4ccccc4)c(Cl)c3)ccc12` [Example 13.05]: the IC50 is 10 to 40 µM.
The value for `COc1ccc(CNc2ncc(C(=O)NCc3ccc4c(N)nccc4c3)cc2Cl)cc1` [Example 11.11] was 10 to 40 µM; that for `Nc1nccc2cc(CNC(=O)c3cnc(NCCn4ccnc4)c(Cl)c3)ccc12` [Example 11.17] was 10 to 40 µM.
With `CN(C)CCOc1ccc(CNc2ncc(Cl)cc2C(=O)NCc2ccc3c(N)nccc3c2)cc1` [Example 11.06] the figure was 3 to 10 µM; with `Nc1nccc2cc(CNC(=O)c3cnc(NC4CCOCC4)c(Cl)c3)ccc12` [Example 11.13], 10 to 40 µM.
Take `CS(=O)(=O)c1cccc(CNc2ncc(C(=O)NCc3ccc4c(N)nccc4c3)cc2Cl)c1` [Example 11.12]: the IC50 fell in the range of 3 to 10 µM.
The value for `CC(C)N1CCN(CCCNc2ncc(C(=O)NCc3ccc4c(N)nccc4c3)cc2Cl)CC1` [Example 11.22] was 3 to 10 µM; that for `CN1CCC(CNc2ncc(Cl)cc2C(=O)NCc2ccc3c(N)nccc3c2)CC1` [Example 1.13, N-[(1-Amino-6-isoquinolyl)methyl]-5-chloro-2-[(1-methyl-4-piperidyl)methylamino]pyridine-3-carboxamide] was 0.3 to 1 µM.
The value for `CN1CCN(CCNc2ncc(Cl)cc2C(=O)NCc2ccc3c(N)nccc3c2)CC1` [Example 1.12] was 1 to 3 µM; that for `CC(C)N(CCNc1ncc(C(=O)NCc2ccc3c(N)nccc3c2)cc1Cl)C(C)C` [Example 11.20, N-((1-aminoisoquinolin-6-yl)methyl)-5-chloro-6-((2-(diisopropylamino)ethyl)amino)nicotinamide] was 1 to 3 µM; that for `CN(C)c1ccc(Oc2ncc(C(=O)NCc3ccc4c(N)nccc4c3)cc2Cl)cc1` [Example 13.10] was 10 to 40 µM.
With `CS(=O)(=O)Nc1cccc(Nc2ncc(Cl)cc2C(=O)NCc2ccc3c(N)nccc3c2)c1` [Example 1.42] the figure was 10 to 40 µM.
With `CN1CCN(CCCNc2ncc(C(=O)NCc3ccc4c(N)nccc4c3)cc2Cl)CC1` [Example 11.24], the IC50 was in the range of 3 to 10 µM.
